Experimental data taken from publication PMC8617031, “Development of a BCL-xL and BCL-2 dual degrader with improved anti-leukemic activity,” (Nature Communications, 2021).
Where “and” joins values, the source holds several entries; their conditions need not be identical. Identical values can stand only once. Like-named read-outs stand apart in the source and are kept apart here.

Tests used:
His-tagged BCL-xL = biological target: T1, His-tagged BCL-xL (Homo sapiens, UniProt Q07817); test: AlphaScreen competitive binary binding, BCL-xL (biotin-BAD peptide); settings: for inhibition at 0.000305176 µM / inhibition at 0.0012207 µM / inhibition at 0.00488281 µM / inhibition at 0.0195312 µM / inhibition at 0.078125 µM / inhibition at 0.3125 µM / inhibition at 1.25 µM / inhibition at 5 µM: read-out: Alpha signal normalised to Maximum/Minimum (inhibition)
T1 construct: purchased Sigma-Aldrich SRP0187
T1 sequence (Q07817 whole entry): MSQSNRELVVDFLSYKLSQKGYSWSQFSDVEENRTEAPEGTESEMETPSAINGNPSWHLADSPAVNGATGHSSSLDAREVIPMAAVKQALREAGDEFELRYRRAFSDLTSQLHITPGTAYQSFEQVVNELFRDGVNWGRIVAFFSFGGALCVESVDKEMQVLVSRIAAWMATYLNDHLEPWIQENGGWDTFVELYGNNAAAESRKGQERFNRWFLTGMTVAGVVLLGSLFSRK
Method: The reagents were diluted in a buffer containing 250 mM HEPES pH 7.5, 1 M NaCl, 1% BSA, and 0.05% Tween-80. His-tagged BCL-xL (0.5 nM, Cat. No. SRP0187, Sigma-Aldrich) or BCL-2 (1 nM, Cat. No. SRP0186, Sigma-Aldrich) were incubated with serial diluted 753a or 753b and 2 nM biotin-tagged BAD (biotin-[…] amino-terminal, AnaSpec, for BCL-xL) or 10 nM BIM peptides (biotin-[…] N-terminal, AnaSpec, for BCL-2) to a final volume of 40 µl in a 96-well PCR plate. […] After incubation for 2 h, 5 µl 6× His-acceptor beads (Cat. No. AL128M, PerkinElmer) were added to each well at 20 µg/ml final concentration and incubated for 1 h. Then 5 µl streptavidin-donor beads were added (Cat. No. 6760002, PerkinElmer) to each well at 20 µg/ml final concentration and incubated for 45 min. At the end of the incubation period, 17 µl of each sample was transferred in adjacent wells of 384-well proxy plate (Cat. No. 6008280, PerkinElmer). The plate was scanned using the Alpha program on Biotek’s Synergy Neo2 multimode plate reader. The inhibition constant (Ki) was calculated using the non-linear regression, one site, competitive binding, Fit Ki function on GraphPad Prism 9 software, based on experimentally determined dissociation constant (Kd) for each protein–peptide pair.

[1] = Viability (MTS) of 293T cells; assay type: cell-based, human; settings: human
How it was run: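 Adherent cells treated after overnight attachment, nine concentrations in triplicate. After 72 h, MTS/PMS added and incubated 4 h at 37 °C before absorbance at 490 nm. Background-subtracted viability expressed as percent of untreated controls and fitted by non-linear regression.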

[2] = 293T cell viability, MTS absorbance 490 as percent of untreated control, mean of three wells, mean of 3 wells, normalised to own plate
[3] = 293T cell viability, MTS absorbance 490 as percent of untreated control, single replicate well, replicate well, normalised to own plate

## CC1(C)CCC(c2ccc(Cl)cc2)=C(CN2CCN(c3ccc(C(=O)NS(=O)(=O)c4ccc(N[C@H](CCN5CCOCC5)CSc5ccccc5)c(S(=O)(=O)C(F)(F)F)c4)cc3)CC2)C1 [ABT263, navitoclax]
His-tagged BCL-xL; BCL-xL Rep-1, 0.000305176 uM, 0.000305176 µM
  Alpha signal normalised to Maximum/Minimum (inhibition): 28.4807
His-tagged BCL-xL; BCL-xL Rep-1, 0.000305176 uM
  inhibition at 0.000305176 µM: 32%
His-tagged BCL-xL; BCL-xL Rep-1, 0.0012207 uM, 0.0012207 µM
  Alpha signal normalised to Maximum/Minimum (inhibition): 28.8475
His-tagged BCL-xL; BCL-xL Rep-1, 0.0012207 uM
  inhibition at 0.0012207 µM: 27.8%
His-tagged BCL-xL; BCL-xL Rep-1, 0.00488281 uM, 0.00488281 µM
  Alpha signal normalised to Maximum/Minimum (inhibition): 50.9941
His-tagged BCL-xL; BCL-xL Rep-1, 0.00488281 uM
  inhibition at 0.00488281 µM: 46.4%
His-tagged BCL-xL; BCL-xL Rep-1, 0.0195312 uM, 0.0195312 µM
  Alpha signal normalised to Maximum/Minimum (inhibition): 73.9595
His-tagged BCL-xL; BCL-xL Rep-1, 0.0195312 uM
  inhibition at 0.0195312 µM: 70.8%
His-tagged BCL-xL; BCL-xL Rep-1, 0.078125 uM, 0.078125 µM
  Alpha signal normalised to Maximum/Minimum (inhibition): 89.8384
His-tagged BCL-xL; BCL-xL Rep-1, 0.078125 uM
  inhibition at 0.078125 µM: 90.1%
His-tagged BCL-xL; BCL-xL Rep-1, 0.3125 uM, 0.3125 µM
  Alpha signal normalised to Maximum/Minimum (inhibition): 98.7717
His-tagged BCL-xL; BCL-xL Rep-1, 0.3125 uM
  inhibition at 0.3125 µM: 97.2%
His-tagged BCL-xL; BCL-xL Rep-1, 1.25 uM, 1.25 µM
  Alpha signal normalised to Maximum/Minimum (inhibition): 99.2115
His-tagged BCL-xL; BCL-xL Rep-1, 1.25 uM
  inhibition at 1.25 µM: 98.7%
His-tagged BCL-xL; BCL-xL Rep-1, 5 uM, 5 µM
  Alpha signal normalised to Maximum/Minimum (inhibition): 98.674
His-tagged BCL-xL; BCL-xL Rep-1, 5 uM
  inhibition at 5 µM: 99.7%
His-tagged BCL-xL; BCL-xL Rep-1, plate row B, 5 uM
  Alpha signal (raw counts): 24284 and 38579
His-tagged BCL-xL; BCL-xL Rep-1, plate row C, 1.25 uM
  Alpha signal (raw counts): 38335 and 30879
His-tagged BCL-xL; BCL-xL Rep-1, plate row D, 0.3125 uM
  Alpha signal (raw counts): 59200 and 37180
His-tagged BCL-xL; BCL-xL Rep-1, plate row E, 0.078125 uM
  Alpha signal (raw counts): 160796 and 165155
His-tagged BCL-xL; BCL-xL Rep-1, plate row F, 0.0195312 uM
  Alpha signal (raw counts): 437862 and 392628
His-tagged BCL-xL; BCL-xL Rep-1, plate row G, 0.00488281 uM
  Alpha signal (raw counts): 787377 and 721620
His-tagged BCL-xL; BCL-xL Rep-1, plate row H, 0.0012207 uM
  Alpha signal (raw counts): 1053850 and 1038882
His-tagged BCL-xL; BCL-xL Rep-1, plate row I, 0.000305176 uM
  Alpha signal (raw counts): 993971 and 1044138
His-tagged BCL-xL; BCL-xL Rep-1, plate row J, 7.62939e-5 uM
  Alpha signal (raw counts): 1100587 and 1144199
His-tagged BCL-xL; BCL-xL Rep-1, plate row K, 1.90735e-5 uM
  Alpha signal (raw counts): 1236998 and 1302696
His-tagged BCL-xL; BCL-xL Rep-2, 7.62939e-5 uM
  Alpha signal (raw counts): 1461205 and 1360749
His-tagged BCL-xL; BCL-xL Rep-2, 0.000305176 uM, 0.000305176 µM
  Alpha signal normalised to Maximum/Minimum (inhibition): 14.6957
His-tagged BCL-xL; BCL-xL Rep-2, 0.000305176 uM
  inhibition at 0.000305176 µM: 13%
His-tagged BCL-xL; BCL-xL Rep-2, 0.0012207 uM, 0.0012207 µM
  Alpha signal normalised to Maximum/Minimum (inhibition): 16.3472
His-tagged BCL-xL; BCL-xL Rep-2, 0.0012207 uM
  inhibition at 0.0012207 µM: 24%
His-tagged BCL-xL; BCL-xL Rep-2, 0.00488281 uM, 0.00488281 µM
  Alpha signal normalised to Maximum/Minimum (inhibition): 45.5298
His-tagged BCL-xL; BCL-xL Rep-2, 0.00488281 uM
  inhibition at 0.00488281 µM: 46%
His-tagged BCL-xL; BCL-xL Rep-2, 0.0195312 uM, 0.0195312 µM
  Alpha signal normalised to Maximum/Minimum (inhibition): 63.2992
His-tagged BCL-xL; BCL-xL Rep-2, 0.0195312 uM
  inhibition at 0.0195312 µM: 60.9%
His-tagged BCL-xL; BCL-xL Rep-2, 0.078125 uM, 0.078125 µM
  Alpha signal normalised to Maximum/Minimum (inhibition): 91.4929
His-tagged BCL-xL; BCL-xL Rep-2, 0.078125 uM
  inhibition at 0.078125 µM: 89.7%
His-tagged BCL-xL; BCL-xL Rep-2, 0.3125 uM, 0.3125 µM
  Alpha signal normalised to Maximum/Minimum (inhibition): 98.2227
His-tagged BCL-xL; BCL-xL Rep-2, 0.3125 uM
  inhibition at 0.3125 µM: 97.4%
His-tagged BCL-xL; BCL-xL Rep-2, 1.25 uM, 1.25 µM
  Alpha signal normalised to Maximum/Minimum (inhibition): 99.5826
His-tagged BCL-xL; BCL-xL Rep-2, 1.25 uM
  inhibition at 1.25 µM: 100%
His-tagged BCL-xL; BCL-xL Rep-2, 5 uM, 5 µM
  Alpha signal normalised to Maximum/Minimum (inhibition): 99.8318
His-tagged BCL-xL; BCL-xL Rep-2, 5 uM
  inhibition at 5 µM: 99%
His-tagged BCL-xL; BCL-xL Rep-2, plate row B, 5 uM
  Alpha signal (raw counts): 36635 and 25525
His-tagged BCL-xL; BCL-xL Rep-2, plate row C, 1.25 uM
  Alpha signal (raw counts): 22256 and 28959
His-tagged BCL-xL; BCL-xL Rep-2, plate row D, 0.3125 uM
  Alpha signal (raw counts): 58501 and 47695
His-tagged BCL-xL; BCL-xL Rep-2, plate row E, 0.078125 uM
  Alpha signal (raw counts): 165323 and 140416
His-tagged BCL-xL; BCL-xL Rep-2, plate row F, 0.0195312 uM
  Alpha signal (raw counts): 561843 and 528857
His-tagged BCL-xL; BCL-xL Rep-2, plate row G, 0.00488281 uM
  Alpha signal (raw counts): 767546 and 773677
His-tagged BCL-xL; BCL-xL Rep-2, plate row H, 0.0012207 uM
  Alpha signal (raw counts): 1070160 and 1175743
His-tagged BCL-xL; BCL-xL Rep-2, plate row I, 0.000305176 uM
  Alpha signal (raw counts): 1221423 and 1198497
His-tagged BCL-xL; BCL-xL Rep-2, plate row K, 1.90735e-5 uM
  Alpha signal (raw counts): 1346687 and 1389856
[1]
  viability at 72 h, 0.00137174 µM: 96.2%
  viability at 72 h, 0.00411523 µM: 94.4%
[1]; 293T cell viability, MTS absorbance 490 as percent of untreated control, mean of three wells, 0.037037 uM, mean of 3 wells, normalised to own plate
  viability at 72 h, 0.037037 µM: 107%
[1]; 293T cell viability, MTS absorbance 490 as percent of untreated control, mean of three wells, 0.111111 uM, mean of 3 wells, normalised to own plate
  viability at 72 h, 0.111111 µM: 113%
[1]; [2]
  viability at 72 h, 0.333333 µM: 103%
  viability at 72 h, 1 µM: 98.5%
  viability at 72 h, 3 µM: 61.1%
[1]; [3]
  viability at 72 h, 0.333333 µM: 94.3%
  viability at 72 h, 1 µM: 93.3%
  viability at 72 h, 3 µM: 60.7%
